# Patent US6537567B1, “Tissue-engineered tubular construct having circumferentially oriented smooth muscle cells” (Massachusetts Institute of Technology, priority 1997, dated 2003)
# Tests used:
# [1] = system: Segments of neo-artery; assay: Pharmacologic reactivity of vessel segments in myographs; type: cell-based; settings: for constriction response of vessel segment: prostaglandin F2α 10^−5 to 10^−4 M, serotonin 10^−6 to 10^−5 M, endothelin-1 10^−7, resting tension four grams
# Method: Segments of neo-artery three mm in length were assessed for reactivity to pharmacologic agents using techniques previously reported. Briefly, segments were placed in physiological saline bubbled with 95% O2 and 5% CO2, and mounted on tungsten wires in conventional myographs connected to a pen recorder. Freshly excised segments of rabbit abdominal aorta were used as controls. Vessels were maintained at a resting tension of four grams for 30 minutes prior to testing. Vessels were exposed to indomethacin 10^−5 M, LNNA 10^−4 M, norepinephrine 10^−6 M, prostaglandin F2α10^−5 to 10^−4 M, papavarine 10^−6 to 10^−5 M, serotonin 10^−6 to 10^−5 M, endothelin-1 10^−7 and potassium 30-60 mM. […] In some experiments, the magnitude of the constriction response was augmented by prior exposure to indomethacin.
# [2] = system: smooth muscle cells; assay: Growth of smooth muscle cells under externally applied physical forces; type: cell-based; settings: response to externally applied physical forces such as pulsatile force
# Method: For use in the methods of the present invention, several variations on standard cell growth media have been developed. […] In addition, for growing any cells which normally produce a substantial collagenous extracellular matrix, an “enhanced cell growth medium” has been developed which comprises standard cell growth medium, as described above, supplemented with 1-10 mM, preferably 5 mM, HEPES buffer; 0.01-0.1 g/L, preferably 0.02-0.06 g/L, Vitamin C; 0.01-0.1 g/L, preferably 0.02-0.06 g/L, proline; 0.01-0.1 g/L, preferably 0.02-0.06 g/L, glycine; 0.01-0.1 g/L, preferably 0.02-0.06 g/L, alanine; and 0.5-5.0 μg/L, preferably 1.0-3.0 μg/L, of a copper salt (e.g., CuSO4). Because Vitamin C has a half-life of only 6-8 hours at 37° C. in culture medium, Vitamin C is preferably replenished daily to enhance collagen synthesis by the cells. In addition, proline, glycine, and alanine are provided in excess to provide adequate amounts of these amino acids for the synthesis of collagen and other extracellular matrix proteins such as elastin. Copper ions are a necessary co-factor for elastin synthesis and, therefore, a source of copper ions (e.g., CuSO4) is preferably included in media used to grow elastin-rich tissues. For the growth of endothelial cells, it is preferred that CS be used rather than FBS. […]
# [3] = system: smooth muscle cell; settings: cited from earlier work
# [4] = system: aortic endothelial cell; settings: cited from earlier work
Compound,constriction response of vessel segment [1],effect on smooth muscle cell proliferation [3],other results
COc1ccc2c(c1)c(CC(=O)O)c(C)n2C(=O)c1ccc(Cl)cc1 [indomethacin],,,"effect of prior exposure on magnitude of the constriction response ([1]; indomethacin 10^−5 M, in some experiments): augmented"
COc1ccc(Cc2nccc3cc(OC)c(OC)cc23)cc1OC [papavarine],,,relaxation response of vessel segment ([1]; papavarine 10^−6 to 10^−5 M): relaxation
NCCc1c[nH]c2ccc(O)cc12 [serotonin],reproducible constriction,,
[H]/N=C(/N)N[C@H]1[C@H](O)[C@@H](O)[C@H](O[C@@H]2O[C@@H](C)[C@](O)(C=O)[C@H]2O[C@@H]2O[C@@H](CO)[C@H](O)[C@@H](O)[C@@H]2NC)[C@@H](N/C(N)=N\[H])[C@@H]1O [streptomycin],,,effect on development of the desired smooth muscle phenotype [2]: tends to inhibit the development of the desired phenotype
PDGF,,stimulate smooth muscle cell proliferation,
VEGF,,,effect on aortic endothelial cell growth [4]: stimulate aortic endothelial cell growth
aFGF: acidic fibroblast growth factor,,stimulate smooth muscle cell proliferation,
bFGF: basic fibroblast growth factor,,stimulate smooth muscle cell proliferation,effect on aortic endothelial cell growth [4]: stimulate aortic endothelial cell growth
"endothelin-1 (CSCSSLMDKECVYFCHLDIIW; Endothelin-1; UniProt P05305 53-73, looked up)",reproducible constriction,,
prostaglandin F2α,reproducible constriction,,
